Experimental data from publication PMC11504387, “Synthesis and Biological Activity Assessment of 2-Styrylbenzothiazoles as Potential Multifunctional Therapeutic Agents” (Antioxidants, 2024).

Key:
skin HaCat keratinocytes = experiment: Cell growth inhibition assay, HaCat; assay type: cell-based, human; settings: 24 h incubation; mean ± SD
Experimental: Cell growth inhibition analyses were performed on human melanoma Colo38 cells and skin HaCat keratinocytes. Human melanoma Colo38 cells were kindly given by Dr. Patrizio Giacomini (Laboratory of Immunology, Regina Elena Institute, Rome, Italy). HaCat cells were obtained from Istituto Zooprofilattico Sperimentale della Lombardia e dell’Emilia-Romagna, Brescia, Italy. Cells were seeded at 40,000 cells/mL and 25,000 cells/mL, respectively. Colo38 cells were maintained in RPMI 1640, supplemented with 10% foetal bovine serum (FBS), penicillin (100 Units/mL), and streptomycin (100 µg/mL). HaCat cells were maintained in DMEM, supplemented with 10% fatal bovine serum (FBS), penicillin (100 Units/mL), streptomycin (100 µg/mL) and glutamine (2 mM); the incubation was performed at 37 °C in a 5% CO2 atmosphere. Compounds were dissolved in DMSO to obtain 50 mM stock solutions and diluted before cell treatment in MeOH. The tested compounds were added at serial dilutions to the cell cultures (from 0.1 to 100 µM) and incubated for 24 h further. Cells were then harvested, suspended in physiological solution, and counted with a Z2 Coulter Counter (Coulter Electronics, Hialeah, FL, USA). The number of cells/mL and the IC50 values were determined when untreated cells were in the log phase of cell growth. Samples of vehicles and untreated cells were included in each plate. Cisplatin was used as positive control for the HaCat cells, while N1-(4-arylidene)-1H-(2-OH-4-N(Et)2-phenyl)-[d]imidazole-2-carbohydrazide was used as positive control for the Colo38 cell line.

[1] = Ferric reducing antioxidant power (FRAP) test; assay type: biochemical; settings: Trolox equivalents; mean ± SD
Experimental: The FRAP test, based on a colorimetric reaction, can assess the ability of a sample to reduce ferric ions to ferrous ions when complexed with 2,4,6-trispiridyl-s-triazine (TPTZ). The FRAP solution consisted of 0.1 M acetate buffer (pH 3.6), 10 mmol/L of TPTZ in 40 mM HCl and a 20 mM solution of FeCl3, in a 10:1:1 ratio. A 1.9 mL volume of the FRAP solution was incubated with 0.1 mL of the sample solution at 37 °C for 10 min. The absorbance was then read with a UV-Vis spectrophotometer at a wavelength of 593 nm, which corresponds to the maximum absorbance peak of the Fe^2+-TPTZ complex. Trolox® was used as a standard, and ferulic acid was used as positive control, and the results are expressed as µmol TE/g.

ORAC assay = assay type: biochemical; settings: Trolox equivalents; mean ± SD
Experimental: The ORAC assay was performed based on the previously modified Hong procedure. The sodium salt of fluorescein (85 nM) was used as a target for free radical attack with 2,2′-azobis(2-amidinopropane) dichloride (AAPH) as a peroxyl radical generator in the final assay mixture (total volume of 0.2 mL). The test involves a calibration curve of Trolox (standard control) with different concentrations (40 to 240 μM). The compounds tested were first dissolved in DMSO:MeOH and then diluted in phosphate buffer solution pH 7.4. Fluorescence measurements were performed at 37 °C and recorded at 5-min intervals up to 30 min after the addition of AAPH. ORAC values were calculated as the difference in areas under the fluorescein quenching curves between the blank and the sample and were expressed as µmol Trolox equivalents (TE) per gram of dried sample.

[2] = DPPH radical scavenging activity; assay type: biochemical; settings: values in brackets; mean ± SD
Experimental: For all the compounds, 0.750 mL of a DMSO-MeOH solution mixed with 1.5 mL of DPPH solution (0.004%) in MeOH was analysed. The samples were kept in the dark at room temperature for 30 min and then analysed with a spectrophotometer by reading the absorbance at 517 nm (lambda max of the absorption spectrum of the DPPH radical). Equation (5) was used to obtain the percentage inhibition (%) of the radical: DPPH radical-scavenging capacity (%) = [1 − (A1 − A2)/A0] × 100%(5) where A2 is the blank (MeOH), and A1 and A0 are, respectively, the recorded absorbances of the sample and control (0.750 MeOH and 1.5 mL DPPH solution), directly proportional to the concentration of residual DPPH. An initial screening was performed by testing all compounds at a concentration of 1 mg/mL (Trolox® was used as the standard); subsequently, compounds showing >90% radical inhibition were further tested to calculate their IC50 value (expressed in µg/mL). Ferulic acid was used as positive control. A linear regression was performed to calculate the sample concentration able to eliminate 50% of DPPH free radicals.

primary human monocytes = experiment: Lipid mediator (LM) formation in primary human monocytes; assay type: cell-based; settings: diclofenac 1 µM; A23187 2.5 µM, 30 min
Description: Monocytes and polymorphonuclear leukocytes (PMNL) were freshly isolated from human blood. Human blood and leukocyte concentrates were provided by the Institute for Transfusion Medicine of the University Hospital Jena (Thuringia, Germany). The protocols for experiments with human blood and blood cells were approved by the ethical commission of the Friedrich Schiller University of Jena. Following blood density centrifugation and separation of cell populations, peripheral blood mononuclear cells (PBMC) were left to adhere for 1 h to cell culture flasks (monocyte-enriched PBMC). Non-adherent cells were washed off from the adherent monocytes, before pre-incubating monocytes (5 × 10^6 cells/mL) with the test compounds for 10 min at 37 °C. LM formation was elicited with A23187 (2.5 µM) and CaCl2 (1 mM) over 30 min. The reaction was stopped with 1 mL of ice-cold methanol containing 10 µL of deuterium-labelled internal LM standards (200 nM d8-5S-HETE, d4-LTB4, d5-LXA4, d5-RvD2, d4-PGE2 and 10 µM d8-AA). LMs were extracted using Sep-Pak C18 35 cc Vac Cartridges (Waters, Milford, MA, USA) and analysed by UPLC-MS/MS as described by Pein et al..
The ability to modulate LM formation was screened in primary human monocytes expressing the enzymes required for PGE2, LTB4, and 12-HETE production (Figure 2A). Cells were pre-treated with the test compounds BZTst1–6 (10 µM) or the reference COX inhibitor diclofenac (1 µM) for 10 min prior to stimulation with the calcium ionophore A23187 (2.5 µM) for 30 min.

`N.N.[Cl][Pt][Cl]` [Cisplatin, reference compound] showed an IC50 (skin HaCat keratinocytes) of 2000 ± 400 nM.
With `COc1cc(/C=C/C(=O)O)ccc1O` [Ferulic Acid, reference compound] the FRAP [1] was 6872.60 ± 10.70 µmolTE/g, the ORAC (ORAC assay) was 15,906.40 ± 14.20 µmolTE/g and the “DPPH IC50 (sample concentration able to scavenge 50% of the DPPH radical)” value [2] was “(9.90 ± 0.70) µg/mL”.
In the case of `O=C(O)Cc1ccccc1Nc1c(Cl)cccc1Cl` [diclofenac, reference compound], the PGE2 formation (primary human monocytes) is reported as “significantly downregulated”.
